Values quoted from earlier work as cited in patent US20190124865A1, “APPARATUS AND METHOD FOR INACTIVATING PLANT PATHOGENS WHILE STIMULATING PLANT GROWTH VIA SELECTIVE APPLICATION OF OXYGEN/OZONE GAS MIXTURES, AND CARBON DIOXIDE, IN A MULTI COMPARTMENT SYSTEM” (priority 2017, published 2019).

Columns and labels:
[1] = tested on: Aeromonas hydrophilia; conditions: ozone 5% per volume admixed with oxygen
[2] = tested on: fungal species; conditions: ozone 5% by volume, given time
[3] = tested on: coliform bacteria; conditions: ozone 5% per volume admixed with oxygen
[4] = gaseous milieu, room temperature
[5] = tested on: staphylococcus aureus; conditions: ozone 5% per volume admixed with oxygen
[6] = tested on: plants; conditions: 30% increase in ambient carbon dioxide, in the order of 100 ppm to 150 ppm

O=[O+][O-] [Ozone, ozone]
inactivation of Aeromonas hydrophilia [1]: rapidly inactivates | effect on fungal species [2]: inexorable distress to any and all fungal species, leading to their demise | inactivation of coliform bacteria [3]: rapidly inactivates | rate of reversion to pure oxygen [4]: about 50 % per hour | inactivation of staphylococcus aureus [5]: rapidly inactivates

O=C=O [carbon dioxide]
increase in plant growth [6]: 30%
